From patent publication US8389544B2, “Isoquinolone compounds as subtype-selective agonists for melatonin receptors MT1 and MT2” (The Hong Kong University of Science and Technology, priority 2007, dated 2013)
Like-named read-outs stand apart in the source and are kept apart here.

Experiments:
MT2 receptor [1] = target: T1, MT2 receptor (Homo sapiens, UniProt P49286); experiment: Competitive [3H]melatonin binding assay, MT2; parameters: expressed in transfected cells; conditions: displacement of 1 nM [3H]melatonin
T1 sequence (P49286 1-362): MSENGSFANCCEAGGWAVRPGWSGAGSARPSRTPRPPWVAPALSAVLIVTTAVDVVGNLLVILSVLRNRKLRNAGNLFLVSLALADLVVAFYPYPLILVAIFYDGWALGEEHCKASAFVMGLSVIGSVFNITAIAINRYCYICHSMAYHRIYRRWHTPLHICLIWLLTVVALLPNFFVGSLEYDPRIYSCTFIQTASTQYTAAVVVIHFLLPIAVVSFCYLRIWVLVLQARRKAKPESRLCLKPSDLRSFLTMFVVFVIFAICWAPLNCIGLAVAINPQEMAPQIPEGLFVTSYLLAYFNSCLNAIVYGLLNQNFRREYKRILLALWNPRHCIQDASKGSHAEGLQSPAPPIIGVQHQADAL
Description: Competitive ligand binding assays were performed to examine the receptor binding characteristics of the novel isoquinolone compounds. The assay measures the ability of the novel isoquinolone compounds to bind and displace the radiolabelled endogenous ligand, [^3H]melatonin. Increasing concentrations of the novel compounds are added to displace the [^3H]melatonin-bound to MT1 or MT2 receptor-expressing cells.
4. Competitive Binding Assay
The ability of compounds to bind to MT1 and/or MT2 receptors is determined using radioligand binding assays. […] 48 hours following transfection, cells are harvested in binding buffer (50 mM Tris-HCl, 2 mM MgCl2, 1 mM EDTA, pH 7.4). 100,000 cells are incubated with 1 nM [^3H] melatonin (specific activity: 83 Ci/mmol; GE Healthcare) and appropriate concentrations (0.1 nM to 1 μM) of unlabelled ligands in a total volume of 100 μl in 96-well plates (PerkinElmer Life And Analytical Sciences, Inc., Boston, Mass.) for 2 hours at room temperature. Reactions are terminated by rapid filtration through a 96-well cell harvester onto 96-well GF/C filter mats. Filters are washed with 500 μl of ice-cold binding buffer, dried and sealed in a polyethylene bag with 3.5 ml of scintillation fluid and counted for tritium in a Microbeta Jet scintillation counter. […] Data are analyzed by nonlinear least-squares regression using GraphPad Prism 3.02.

MT2 receptor [2] = target: T1, MT2 receptor; experiment: FLIPR Ca2+ mobilization assay, MT2; format: cell-based; parameters: expressed in transfected cells; host or cells: COS-7 (monkey kidney fibroblast); conditions: for % Response of 2-IMT: relative to 2-IMT response; for agonist character / receptor subtype selectivity in words: FLIPR results, MT1 versus MT2; for Emax: read-out: % Response of 2-IMT
Description: 1. FLIPR Ca^2+ Mobilization Assay
This assay indicates the ability of the novel compounds to activate MT1 and MT2 receptors by measuring downstream events of the activated receptor, in this case intracellular calcium mobilization.
1. Intracellular Ca^2+ Mobilization Assay Using Fluorometric Imaging Plate Reader (FLIPR®)
An intracellular calcium mobilization assay was performed to screen the isoquinolone compounds against the two melatonin receptor subtypes, MT1 and MT2 on the fluorometric imaging plate reader (FLIPR®). In order to facilitate the screening process in a high-throughput manner, chimeric G proteins with the ability to couple to a range of GPCR as well as activate intracellular Ca^2+ were employed. The melatonin receptor subtype (either MT1 or MT2) was co-expressed with the G-protein chimeras in COS-7 (monkey kidney fibroblast) cells. During the assay, cells were exposed to the novel isoquinolone compounds and the corresponding change in fluorescence was measured. Both single point and dose-dependant assays were performed for each isoquinolone compound and based on the latter a dose response curve was generated and the corresponding EC50 for each receptor subtype determined.
Specifically, COS-7 cells were seeded at a density of 20,000 cells/well into 96-well plates designed for FLIPR assays, using Opti-MEM with 10% FCS at a volume of 100 μl/well. Transfection was carried out using Lipofectamine 2000® reagent. In each well, 0.2 μg of the GPCR and G protein cDNA were diluted with 25 μl of Opti-MEM and 0.2 μl of Lipofectamine 2000® was diluted with another 25 μl of Opti-MEM. They were added to appropriate wells after the two components were mixed for 20 min.
After 48 hours of incubation post-transfection, 50 μl of the transfection medium was removed from each well followed by the labelling of transfected cells with 100 μl of 2 μM Fluo-4 in calcium containing HBSS (Hank's balanced salt solution) with 20 mM HEPES (N-[2-hydroxyethyl]piperazine—N′-[2-ethanesulfonic acid]; pH 7.5) and 2.5 mM probenecid (anion exchanger inhibitor, freshly prepared) for 1 hour at 37° C. 70 μl of 3× drugs (isoquinolinone compounds encompassing the invention) were prepared and aliquoted into the corresponding wells in the V-well drug plate. Changes in fluorescence were detected in the FLIPR 96 with an excitation wavelength of 488 nm. The background fluorescence was adjusted to the range of 8,000 to 12,000 units by altering the laser power and exposure time (typically 0.4 W and 0.4 sec, respectively) for the FLIPR setup. 50 μl of each agonist solution was added to the corresponding wells and the fluorescent emission (between 510 and 560 nm) was monitored for 3 min. Results were expressed as change in fluorescent intensity units (FIU). Concentration-response curves were generated by determining the maximal change in FIU of each data set. Numerical analysis of the statistics and EC50 (median effective concentration) values were performed on GraphPad Prism version 3.03.
Then the intracellular Ca^2+ mobilization assays using the Fluorometric Imaging Plate Reader (FLIPR®) were performed as described above.

[3] = HEK-293 cells, log value, negative, NSB = No significant binding
[4] = Table 1, MT2 in COS-7 cells with chimeric G protein, log value, negative, NSR = no significant response
[5] = Table 2, MT2, log value, negative
[6] = Table 1, MT2 in COS-7 cells with chimeric G protein, log value, negative, NSR = no significant response, read-out: Log(EC50) ± SEM (converted)
[7] = unit inferred, read-out: Binding Assay MT2 IC50

SMILES: Cn1ccc2cc(OC(=O)c3ccccc3)c(OC(=O)c3ccccc3)cc2c1=O [IS039]
- Binding Assay MT2 logIC50 ± SEM (MT2 receptor [1]; [3]): NSB
- % Response of 2-IMT (MT2 receptor [2]; Table 1, MT2): 61.0%
- Log(EC50) ± SEM (MT2 receptor [2]; [4]): −8.64 ± 0.20
- % Resp of 2-IMT (MT2 receptor [2]; Table 2, MT2): 61.0%
- logEC50 ± SEM (MT2 receptor [2]; [5]): −8.64 ± 0.20
- EC50 (MT2 receptor [2]; Table 2, MT2, read-out: EC50): 2.31 nM

SMILES: COc1cc(COc2cc3ccn(C)c(=O)c3cc2OC)cc(OC)c1 [IS042]
- Binding Assay MT2 logIC50 ± SEM (MT2 receptor [1]; [3]): NSB
- agonist character / receptor subtype selectivity in words (MT2 receptor [2]): very potent full agonists with high MT2 selectivity
- EC50 (MT2 receptor [2]; [6]): 0.38 nM
- % Resp of 2-IMT (MT2 receptor [2]; Table 2, MT2): 84.5%
- EC50 (MT2 receptor [2]; Table 2, MT2, read-out: EC50): 0.379 nM
- Emax (MT2 receptor [2]): 84.5%

SMILES: COc1cccc(COc2cc3ccn(C)c(=O)c3cc2OC)c1 [IS044]
- agonist character / receptor subtype selectivity in words (MT2 receptor [2]): very potent full agonists with high MT2 selectivity
- % Response of 2-IMT (MT2 receptor [2]; Table 1, MT2): 94.9%
- Log(EC50) ± SEM (MT2 receptor [2]; [4]): −8.42 ± 0.25
- % Resp of 2-IMT (MT2 receptor [2]; Table 2, MT2): 94.9%
- logEC50 ± SEM (MT2 receptor [2]; [5]): −8.42 ± 0.25
- EC50 (MT2 receptor [2]; Table 2, MT2, read-out: EC50): 3.8 nM

SMILES: COc1cccc(COc2cc3c(=O)n(C)ccc3cc2OC)c1 [IS521]
- IC50 (MT2 receptor [1]; [7]): 145 nM
- agonist character / receptor subtype selectivity in words (MT2 receptor [2]): very potent full agonists with high MT2 selectivity
- EC50 (MT2 receptor [2]; [6]): 11.5 nM
- % Resp of 2-IMT (MT2 receptor [2]; Table 2, MT2): 98.9%
- EC50 (MT2 receptor [2]; Table 2, MT2, read-out: EC50): 11.4 nM
- Emax (MT2 receptor [2]): 98.9%

SMILES: COc1cc(COc2cc3c(=O)n(C)ccc3cc2OC)cc(OC)c1 [IS523]
- Binding Assay MT2 logIC50 ± SEM (MT2 receptor [1]; [3]): NSB
- agonist character / receptor subtype selectivity in words (MT2 receptor [2]): very potent full agonists with high MT2 selectivity
- EC50 (MT2 receptor [2]; [6]): 45.7 nM
- % Resp of 2-IMT (MT2 receptor [2]; Table 2, MT2): 61.0%
- EC50 (MT2 receptor [2]; Table 2, MT2, read-out: EC50): 45.4 nM
- Emax (MT2 receptor [2]): 61%

SMILES: COc1cc2ccn(C)c(=O)c2cc1OCc1ccc(C(C)(C)C)cc1 [IS526]
- Binding Assay MT2 logIC50 ± SEM (MT2 receptor [1]; [3]): NSB
- % Response of 2-IMT (MT2 receptor [2]; Table 1, MT2): 88.6%
- Log(EC50) ± SEM (MT2 receptor [2]; [4]): −5.42 ± 0.76
- % Resp of 2-IMT (MT2 receptor [2]; Table 2, MT2): 88.6%
- logEC50 ± SEM (MT2 receptor [2]; [5]): −5.42 ± 0.76
- EC50 (MT2 receptor [2]; Table 2, MT2, read-out: EC50): 3770 nM

SMILES: COc1cccc(COc2c(OC)ccc3c(=O)n(C)ccc23)c1 [IS527]
- IC50 (MT2 receptor [1]; HEK-293 cells, log value, negative, NSB = No significant binding, read-out: Binding Assay MT2 logIC50 ± SEM (converted)): 117 nM
- IC50 (MT2 receptor [1]; [7]): 108 nM
- activity / efficacy at MT2 compared to 2-IMT (MT2 receptor [2]): ~65%
- % Resp of 2-IMT (MT2 receptor [2]; Table 2, MT2): 65.9%
- EC50 (MT2 receptor [2]; Table 2, MT2, read-out: EC50): 5.78 nM
- Emax (MT2 receptor [2]): 65.9%
- EC50 (MT2 receptor [2]; read-out: EC50 MT2): 5.78 nM

SMILES: COc1cc(COc2c(OC)ccc3c(=O)n(C)ccc23)cc(OC)c1 [IS528]
- Binding Assay MT2 logIC50 ± SEM (MT2 receptor [1]; [3]): NSB
- activity / efficacy at MT2 compared to 2-IMT (MT2 receptor [2]): ~65%
- % Response of 2-IMT (MT2 receptor [2]; Table 1, MT2): 64.8%
- Log(EC50) ± SEM (MT2 receptor [2]; [4]): −9.43 ± 0.75
- % Resp of 2-IMT (MT2 receptor [2]; Table 2, MT2): 64.8%
- logEC50 ± SEM (MT2 receptor [2]; [5]): −9.43 ± 0.75
- EC50 (MT2 receptor [2]; Table 2, MT2, read-out: EC50): 0.369 nM
- EC50 (MT2 receptor [2]; read-out: EC50 MT2): 0.37 nM

SMILES: COc1ccc2c(=O)n(C)ccc2c1OCc1ccc(C)cc1 [IS529]
- Binding Assay MT2 logIC50 ± SEM (MT2 receptor [1]; [3]): NSB
- agonist character / receptor subtype selectivity in words (MT2 receptor [2]): activated MT2 only
- EC50 (MT2 receptor [2]; [6]): 64.6 nM
- % Resp of 2-IMT (MT2 receptor [2]; Table 2, MT2): 53.6%
- EC50 (MT2 receptor [2]; Table 2, MT2, read-out: EC50): 65.2 nM
- Emax (MT2 receptor [2]): 53.6%
